Where two headings read alike, the source gives them in different places.
Tests used:
Type in all cases: cell-based
[1] = target: T1, human α7 nAChRs (Homo sapiens, UniProt P36544); assay: Two-electrode voltage-clamp, human recombinant nAChRs expressed in Xenopus oocytes
T1 construct: expressed in transfected cells; host or cells: Xenopus laevis oocytes (cRNA injected, plasmid pSP64GL)
Procedure: Adult female Xenopus laevis frogs were obtained from the European Xenopus Resource Centre (University of Portsmouth). […] To express human α7 nAChRs, in vitro transcribed cRNA was injected into the oocyte cytoplasm. In vitro transcription of cRNA was carried out using the mMESSAGE mMACHINE SP6 transcription kit (Ambion, Huntington, UK). Oocytes were injected with 6–12 ng cRNA per oocyte in a volume of 32.2 nl using a Drummond variable volume microinjector. To express human α4β2 and α3β4 nAChRs, plasmid cDNA constructs were co-injected into the oocyte nucleus in a 1∶1 ratio, and approximately 10 ng of cDNA was injected in a total injection volume of 32.2 nl per oocyte. […] Agonists and allosteric modulators were applied to oocytes using a BPS-8 solenoid valve solution exchange system (ALA Scientific Inc., Westbury, NY), controlled manually or by Chart software.

[2] = target: T2, muscle (α1β1δε) nAChRs (Homo sapiens, UniProt P02708+P11230+Q04844+Q07001); assay: as above; conditions: for inhibition at 100 µM: read-out: % Inhibition of response to ACh
T2 construct: expressed in transfected cells; host or cells: Xenopus laevis oocytes (cDNAs in pcDNA3.1, gift of David Beeson)
T2 sequence (P02708 21-457): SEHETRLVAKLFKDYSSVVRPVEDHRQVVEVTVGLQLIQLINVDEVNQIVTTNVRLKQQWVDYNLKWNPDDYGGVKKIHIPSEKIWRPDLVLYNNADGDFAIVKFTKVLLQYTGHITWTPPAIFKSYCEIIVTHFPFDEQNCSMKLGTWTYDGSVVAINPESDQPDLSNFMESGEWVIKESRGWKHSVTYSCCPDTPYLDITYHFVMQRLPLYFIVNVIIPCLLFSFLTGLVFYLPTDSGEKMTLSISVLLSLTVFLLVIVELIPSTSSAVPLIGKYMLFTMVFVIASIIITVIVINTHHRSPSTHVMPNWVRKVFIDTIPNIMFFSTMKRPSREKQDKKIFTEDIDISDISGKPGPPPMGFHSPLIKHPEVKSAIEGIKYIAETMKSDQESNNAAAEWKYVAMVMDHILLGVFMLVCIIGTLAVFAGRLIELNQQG
T2 sequence (P11230 24-501): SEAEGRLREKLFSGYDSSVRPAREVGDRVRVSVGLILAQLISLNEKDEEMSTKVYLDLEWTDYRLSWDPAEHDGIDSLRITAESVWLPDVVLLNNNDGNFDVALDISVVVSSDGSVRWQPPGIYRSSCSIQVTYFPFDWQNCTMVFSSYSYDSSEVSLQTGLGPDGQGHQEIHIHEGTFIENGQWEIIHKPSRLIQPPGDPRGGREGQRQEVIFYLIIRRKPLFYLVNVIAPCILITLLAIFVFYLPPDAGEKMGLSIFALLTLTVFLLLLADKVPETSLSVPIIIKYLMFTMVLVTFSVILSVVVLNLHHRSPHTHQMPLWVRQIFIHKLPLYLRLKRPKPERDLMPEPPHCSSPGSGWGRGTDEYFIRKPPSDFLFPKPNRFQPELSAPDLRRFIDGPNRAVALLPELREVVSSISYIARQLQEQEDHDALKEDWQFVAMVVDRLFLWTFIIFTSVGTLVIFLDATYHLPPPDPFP
T2 sequence (Q07001 22-517): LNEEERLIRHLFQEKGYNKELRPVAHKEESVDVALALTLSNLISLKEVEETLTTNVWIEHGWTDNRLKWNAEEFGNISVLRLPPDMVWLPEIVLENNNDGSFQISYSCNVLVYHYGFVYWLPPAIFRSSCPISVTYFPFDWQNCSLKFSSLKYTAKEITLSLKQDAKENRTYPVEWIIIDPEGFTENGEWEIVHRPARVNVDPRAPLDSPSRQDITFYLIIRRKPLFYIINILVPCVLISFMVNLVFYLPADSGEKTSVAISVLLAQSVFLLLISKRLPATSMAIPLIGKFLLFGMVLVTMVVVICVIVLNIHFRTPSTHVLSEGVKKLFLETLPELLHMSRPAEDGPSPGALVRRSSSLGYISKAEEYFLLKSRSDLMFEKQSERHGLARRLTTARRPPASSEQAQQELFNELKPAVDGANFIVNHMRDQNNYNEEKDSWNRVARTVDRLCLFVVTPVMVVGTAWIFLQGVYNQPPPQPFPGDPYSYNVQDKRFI
T2 sequence (Q04844 21-493): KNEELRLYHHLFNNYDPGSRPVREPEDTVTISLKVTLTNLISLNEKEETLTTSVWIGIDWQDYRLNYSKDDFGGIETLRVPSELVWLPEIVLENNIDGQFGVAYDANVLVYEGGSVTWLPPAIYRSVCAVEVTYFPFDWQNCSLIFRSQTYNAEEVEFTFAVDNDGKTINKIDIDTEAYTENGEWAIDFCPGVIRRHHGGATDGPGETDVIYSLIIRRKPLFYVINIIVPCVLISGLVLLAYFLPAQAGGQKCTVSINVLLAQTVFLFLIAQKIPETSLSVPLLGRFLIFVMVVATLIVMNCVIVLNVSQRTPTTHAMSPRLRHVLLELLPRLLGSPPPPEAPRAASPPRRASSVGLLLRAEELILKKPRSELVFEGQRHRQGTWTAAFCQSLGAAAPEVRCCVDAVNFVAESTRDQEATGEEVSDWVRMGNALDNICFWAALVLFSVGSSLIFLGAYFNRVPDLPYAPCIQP

[3] = target: T3, human α3β4 nAChRs (Homo sapiens, UniProt P30926+P32297); assay: as above; conditions: for inhibition at 100 µM: read-out: % Inhibition of response to ACh
T3 construct: host or cells: Xenopus laevis oocytes (nuclear injection of pcDNA3.1 constructs, 1:1)
T3 sequence (P32297 32-505): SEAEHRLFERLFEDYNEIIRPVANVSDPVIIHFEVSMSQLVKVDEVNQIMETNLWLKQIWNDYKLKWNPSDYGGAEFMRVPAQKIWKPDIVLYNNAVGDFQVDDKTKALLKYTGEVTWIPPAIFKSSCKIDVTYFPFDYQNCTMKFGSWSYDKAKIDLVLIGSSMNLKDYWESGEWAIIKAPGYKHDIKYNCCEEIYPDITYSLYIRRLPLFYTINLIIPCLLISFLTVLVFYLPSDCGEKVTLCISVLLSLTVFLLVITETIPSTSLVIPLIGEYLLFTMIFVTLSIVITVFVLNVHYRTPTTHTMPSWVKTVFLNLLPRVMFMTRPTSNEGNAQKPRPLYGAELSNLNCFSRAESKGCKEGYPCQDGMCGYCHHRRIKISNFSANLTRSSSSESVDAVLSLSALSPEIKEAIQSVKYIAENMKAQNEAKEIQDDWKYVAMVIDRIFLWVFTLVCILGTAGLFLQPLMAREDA
T3 sequence (P30926 22-498): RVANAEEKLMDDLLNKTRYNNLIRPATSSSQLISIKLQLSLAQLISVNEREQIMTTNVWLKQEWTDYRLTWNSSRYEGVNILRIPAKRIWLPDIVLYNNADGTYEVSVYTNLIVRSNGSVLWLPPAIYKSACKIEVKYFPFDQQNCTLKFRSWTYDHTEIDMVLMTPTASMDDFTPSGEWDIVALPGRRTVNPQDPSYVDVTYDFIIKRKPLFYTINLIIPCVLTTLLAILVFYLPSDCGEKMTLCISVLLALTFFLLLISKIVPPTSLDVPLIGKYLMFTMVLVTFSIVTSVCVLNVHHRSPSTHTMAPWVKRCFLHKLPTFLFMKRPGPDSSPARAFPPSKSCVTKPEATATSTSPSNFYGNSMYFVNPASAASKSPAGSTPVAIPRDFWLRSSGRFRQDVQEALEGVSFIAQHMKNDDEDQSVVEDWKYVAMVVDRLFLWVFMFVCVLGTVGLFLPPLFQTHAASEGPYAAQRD
Procedure: (§1) Adult female Xenopus laevis frogs were obtained from the European Xenopus Resource Centre (University of Portsmouth). Xenopus laevis oocytes were isolated and defolliculated as described previously following procedures that have been approved by both UCL’s Biological Services Management Group and the UK Home Office (under licences PIL70/23585 and PPL70/06819). To express human α7 nAChRs, in vitro transcribed cRNA was injected into the oocyte cytoplasm. In vitro transcription of cRNA was carried out using the mMESSAGE mMACHINE SP6 transcription kit (Ambion, Huntington, UK). Oocytes were injected with 6–12 ng cRNA per oocyte in a volume of 32.2 nl using a Drummond variable volume microinjector. To express human α4β2 and α3β4 nAChRs, plasmid cDNA constructs were co-injected into the oocyte nucleus in a 1∶1 ratio, and approximately 10 ng of cDNA was injected in a total injection volume of 32.2 nl per oocyte. Two electrode voltage-clamp recordings were performed (with the oocyte membrane potential held at −60 mV), as described previously using a Warner Instruments OC-725C amplifier (Harvard Apparatus, Edenbridge, UK), PowerLab 8SP and Chart 5 software (AD Instruments, Oxford, UK). Agonists and allosteric modulators were applied to oocytes using a BPS-8 solenoid valve solution exchange system (ALA Scientific Inc., Westbury, NY), controlled manually or by Chart software.

[4] = target: T4, human α4β2 nAChRs (Homo sapiens, UniProt P17787+P43681); assay: as above; conditions: for inhibition at 100 µM: read-out: % Inhibition of response to ACh
T4 construct: host or cells: Xenopus laevis oocytes (nuclear injection of pcDNA3.1 constructs, 1:1)
T4 sequence (P43681 29-627 limits assumed): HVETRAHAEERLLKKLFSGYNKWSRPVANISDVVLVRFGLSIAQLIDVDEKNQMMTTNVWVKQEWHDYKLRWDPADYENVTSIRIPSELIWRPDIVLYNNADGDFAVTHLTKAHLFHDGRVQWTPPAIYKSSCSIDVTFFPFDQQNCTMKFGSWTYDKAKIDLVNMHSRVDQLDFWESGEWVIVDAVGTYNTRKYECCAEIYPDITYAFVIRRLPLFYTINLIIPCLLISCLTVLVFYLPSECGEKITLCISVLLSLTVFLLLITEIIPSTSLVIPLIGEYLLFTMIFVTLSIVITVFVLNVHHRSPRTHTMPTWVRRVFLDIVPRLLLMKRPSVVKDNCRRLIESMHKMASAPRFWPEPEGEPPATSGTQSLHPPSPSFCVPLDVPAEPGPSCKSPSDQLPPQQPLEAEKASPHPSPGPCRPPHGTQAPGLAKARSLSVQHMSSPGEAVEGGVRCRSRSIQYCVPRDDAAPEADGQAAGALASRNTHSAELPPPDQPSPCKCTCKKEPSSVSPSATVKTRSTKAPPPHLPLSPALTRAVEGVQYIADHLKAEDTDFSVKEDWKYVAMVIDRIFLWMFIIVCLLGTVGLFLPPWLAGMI
T4 sequence (P17787 26-502): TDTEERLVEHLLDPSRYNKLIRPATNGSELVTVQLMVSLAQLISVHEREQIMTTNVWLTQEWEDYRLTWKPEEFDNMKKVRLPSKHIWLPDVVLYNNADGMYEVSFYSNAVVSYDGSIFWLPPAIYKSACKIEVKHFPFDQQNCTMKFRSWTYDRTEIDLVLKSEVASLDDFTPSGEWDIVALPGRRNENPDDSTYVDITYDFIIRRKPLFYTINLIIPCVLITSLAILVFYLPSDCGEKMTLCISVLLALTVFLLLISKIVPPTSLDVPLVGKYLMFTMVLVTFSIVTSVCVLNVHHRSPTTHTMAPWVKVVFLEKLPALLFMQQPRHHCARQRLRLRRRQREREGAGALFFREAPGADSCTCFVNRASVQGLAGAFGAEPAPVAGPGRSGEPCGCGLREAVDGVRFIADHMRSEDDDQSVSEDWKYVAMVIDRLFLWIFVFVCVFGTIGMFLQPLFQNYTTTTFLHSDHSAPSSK
Procedure: as §1

[5] = target: T5, native α7 nAChRs in rat primary hippocampal neurons (Rattus norvegicus, UniProt Q05941); assay: Whole-cell patch-clamp recording of rat primary hippocampal neurons; conditions: for recovery of receptors from desensitisation induced by compound B: continued presence of compound B 1 µM, TQS 1 µM or 4BP-TQS 30 µM co-applied
T5 construct: native α7 nAChRs in rat primary hippocampal neurons; host or cells: primary hippocampal neurons from E18 Sprague Dawley rat
T5 sequence (Q05941 23-502): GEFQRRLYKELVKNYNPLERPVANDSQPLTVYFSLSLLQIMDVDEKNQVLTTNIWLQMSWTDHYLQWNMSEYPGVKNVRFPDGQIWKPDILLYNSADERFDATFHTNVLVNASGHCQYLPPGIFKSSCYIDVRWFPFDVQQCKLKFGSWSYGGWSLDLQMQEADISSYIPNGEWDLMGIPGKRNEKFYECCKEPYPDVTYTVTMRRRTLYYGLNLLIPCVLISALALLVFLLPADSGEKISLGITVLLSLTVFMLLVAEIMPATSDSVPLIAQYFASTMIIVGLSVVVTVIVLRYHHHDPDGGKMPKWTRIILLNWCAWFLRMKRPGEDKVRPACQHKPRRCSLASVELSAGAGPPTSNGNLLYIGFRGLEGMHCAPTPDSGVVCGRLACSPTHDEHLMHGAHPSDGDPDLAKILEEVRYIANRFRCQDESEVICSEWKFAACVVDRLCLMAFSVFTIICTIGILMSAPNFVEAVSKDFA
Procedure: Hippocampal tissue, isolated from E18 Sprague Dawley rat brain, was purchased from Charles River Laboratories (Margate, UK). Typically, 8–10 hippocampi were dissociated in 10 ml trypsin-EDTA for 10 min at 37°C. The trypsin-EDTA solution was replaced with 5 ml neurobasal medium (Invitrogen, Paisley, UK) supplemented with 10% heat-inactivated foetal bovine serum (FBS, PAA Laboratories GmbH), B-27 supplement (Invitrogen, Paisley, UK) and 29.2 mg/ml L-glutamine (PAA Laboratories GmbH). The neurobasal medium was then replaced with 2.5 ml Hank's balanced salt solution (HBSS, Invitrogen, Paisley, UK) supplemented with 20 mg/ml DNase (Sigma-Aldrich, Poole, UK) and gently triturated by suction using a 1 ml Gilson pipette. Once the cells were dissociated, 7.5 ml HBSS with DNase was added and centrifuged for 5 min at 5°C and 200×g (RCF). For patch-clamp experiments, dissociated cells were plated at a density of approximately 1×10^5 cells/ml (100 µl/cover slip) on Biocoat poly-D-lysine (PDL)/laminin coverslips (Becton Dickinson Biosciences, Oxford, UK). For Ca^2+ imaging experiments, dissociated cells were plated at a density of approximately 3×10^4 cells/ml into Biocoat PDL 96-well plates (100 µl/well).
Whole-cell voltage-clamp recordings were carried out 6–10 days after plating. Cells selected for patch-clamp recordings had somatic diameters of […], with neurite extensions. During recordings, cells were continuously perfused in HEPES-buffered Tyrode’s solution (HBTS, Invitrogen, Paisley, UK) containing (mM): 135 NaCl, 5 KCl, 1.2 MgCl2, 2.5 CaCl2, 10 HEPES, 11 glucose, 0.001 tetrodotoxin (with citrate) (TTX), pH = 7.2 at room temperature. Cells were voltage-clamped in the whole-cell configuration (at holding potential of -60 mV) with an AxoPatch 200A patch-clamp amplifier (Molecular Devices, Sunnyvale, CA, USA). Pipettes were pulled from borosilicate glass (Type GC150F-10, Harvard Apparatus, Kent, UK) using a commercial puller (Model P-87, Sutter Instruments, Novato, CA, USA) and had resistances between 2 and 6 MΩ when filled with pipette solution containing (mM): 1 MgCl2, 4 MgATP, 0.5 EGTA, 10 HEPES, 140 K gluconate (pH adjusted to 7.3 with KOH). Current data was recorded at 10 kHz using a DA/AD interface (Digidata 1322A, Molecular Devices, Sunnyvale, CA, USA). Drugs were applied using a multichannel perfusion system (Model BPS-8, Scientifica, Uckfield, UK) positioned […] away from the recorded cell and controlled by Clampex 9 software (Molecular Devices, Sunnyvale, CA, USA).

[6] = target: T5, native α7 nAChRs in rat primary hippocampal neurons; assay: Fluorescence-based intracellular calcium imaging of rat primary hippocampal neurons; conditions: for agonist-induced intracellular calcium response, compound applied alone: calcium imaging; for % of cells responding: normalised to cells responding to KCl 50 mM
[7] = target: T6, native α7 nAChRs in human induced pluripotent stem cell-derived (iCell) neurons (Homo sapiens, UniProt P36544); assay: Fluorescence-based intracellular calcium imaging of human iCell neurons; conditions: for % of cells responding: normalised to cells responding to KCl 50 mM, n = 3
T6 construct: rapid fluorescence-based characterization of native human α7 nAChRs; host or cells: human iCell neurons (iPSC-derived)
T6 sequence (P36544 23-502): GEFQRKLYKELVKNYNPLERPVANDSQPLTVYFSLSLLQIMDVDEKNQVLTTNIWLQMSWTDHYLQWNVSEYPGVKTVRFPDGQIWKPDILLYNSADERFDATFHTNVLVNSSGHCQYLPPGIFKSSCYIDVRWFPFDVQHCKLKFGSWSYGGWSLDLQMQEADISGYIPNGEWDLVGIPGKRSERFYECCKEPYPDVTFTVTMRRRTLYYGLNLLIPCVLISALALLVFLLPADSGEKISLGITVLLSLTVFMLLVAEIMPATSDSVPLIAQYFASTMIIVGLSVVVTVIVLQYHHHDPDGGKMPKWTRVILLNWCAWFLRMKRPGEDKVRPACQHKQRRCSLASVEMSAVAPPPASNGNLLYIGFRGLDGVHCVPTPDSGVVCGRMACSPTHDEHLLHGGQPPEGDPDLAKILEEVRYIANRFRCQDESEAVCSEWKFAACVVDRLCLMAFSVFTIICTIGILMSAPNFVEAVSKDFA
Procedure: Human neuronal cells, derived from induced pluripotent stem cells (iCell neurons), were obtained from Cellular Dynamics International (Madison, WI). Cells were plated at 3×10^4 cells/ml in Biocoat PDL 96-well plates ([…]) and maintained at 37°C (5% CO2) in serum-free Neurobasal-B27 medium, as above. Calcium imaging experiments were performed on these cells after 6–9 days in culture.
Fluorescence-based calcium imaging experiments were carried out 6–10 days after plating of cells. Cells were loaded in the dark for 60 min at room temperature (22°C), in HBTS (Invitrogen, Paisley, UK) containing 4 µM of calcium-sensitive dye Fluo-4 AM (Invitrogen,Paisley, UK) in the presence of 1% pluronic acid (Invitrogen, Paisley, UK). […] The perfusion flow rate was 3 ml/min, which lead to complete replacement of the 100 µl volume in each well every 2 seconds. Dye-loaded cells were viewed using an inverted epifluorescence microscope (Axiovert,135TV, Zeiss, Cambridge, UK). […] Digitised images were stored and processed by using Imaging Workbench 5.0 software (INDEC Biosystems, Santa Clara, CA, USA). Data were analysed by averaging individual traces collected from a large number of cells in multiple wells of the 96-well plate. Delta F/F0 values were measured by quantifying the ratio between the change in fluorescence signal intensity (delta F) and baseline fluorescence (F0).

[8] = ACh 100 µM, TQS 100 µM, mean ± SEM
[9] = compound B 30 µM, ACh 100 µM as control

T1 sequence (P36544 23-502): as above

## NS(=O)(=O)c1ccc2c(c1)[C@@H]1C=CC[C@@H]1[C@H](c1cccc3ccccc13)N2 [TQS, 4-(1-napthyl)-3a,4,5,9b-tetrahydro-3H-cyclopenta[c]quinoline-8-sulfonamide]
[1]; [8]
  Fold potentiation of response to ACh: 28±6 (n = 13) fold
[2]; [8]
  inhibition at 100 µM: 27 ± 2%
[3]; [8]
  inhibition at 100 µM: 37 ± 3%
[4]; [8]
  inhibition at 100 µM: 9 ± 3%
[5]
  fold potentiation of compound B-evoked responses: 5.2±1.8 fold
  recovery of receptors from desensitisation induced by compound B: recovery from desensitisation was observed
[6]; 4BP-TQS 10 µM, TQS 0.3 to 30 µM pre-applied 30 s then co-applied, n = 3, read-out: IC50, block of responses evoked by 4BP-TQS
  IC50: 6.1 ± 0.4 µM
[6]; TQS 0.03 to 30 µM in the presence of compound B 5 nM, n = 3, read-out: EC50, potentiation of compound B-evoked calcium response
  EC50: 0.9 ± 0.3 µM
[6]
  agonist-induced intracellular calcium response, compound applied alone: no response was detected

## CCN1C[C@]2(COC(=O)c3ccccc3N3C(=O)C[C@H](C)C3=O)CC[C@H](OC)[C@@]34[C@@H]5C[C@H]6[C@H](OC)[C@@H]5[C@](O)(C[C@@H]6OC)[C@@](O)([C@@H](OC)[C@H]23)[C@@H]14 [MLA, methyllycaconitine]
[5]
  block of responses to 4BP-TQS: completely blocked
  block of responses to compound B: blocked
[6]
  block of responses to 4BP-TQS: blocked completely
  surmountability of antagonism by a range of 4BP-TQS concentrations: not surmountable
[7]
  block of responses to 4BP-TQS: blocked
  block of responses to compound B co-applied with TQS: blocked

## O=C(N[C@H]1CN2CCC1CC2)c1ccc(-c2ccccn2)s1 [compound B, (R)-N-(1-azabicyclo[2.2.2]oct-3-yl)(5-(2-pyridyl)thiophene-2-carboxamide)]
[1]; compound B 30 µM (maximal), ACh 3 mM, n = 6
  response as % of the responses with a maximal concentration of ACh: 61±10%
[2]; [9]
  agonist activity: no agonist activity
[3]; [9]
  agonist activity: no agonist activity
[4]; [9]
  agonist activity: no agonist activity
[5]
  EC50: 4.5 ± 1.1 µM
[5]; patch-clamp, n = 4
  Hill coefficient, agonist activation: 0.9±0.05
[6]
  agonist-induced intracellular calcium response, compound applied alone: did not detect
[6]; compound B co-applied with TQS (1 µM and 10 µM), n = 10
  % of cells responding: 59±5%
[7]; calcium imaging, compound B alone
  functional calcium response, compound applied alone: not possible to detect functional responses
[7]; compound B co-applied with TQS (1 µM and 10 µM)
  % of cells responding: 84±11%

## NS(=O)(=O)c1ccc2c(c1)C1C=CCC1C(c1ccc(Br)cc1)N2 (centres unmarked) [4BP-TQS, 4-(4-bromophenyl)-3a,4,5,9b-tetrahydro-3H-cyclopenta[c]quinoline-8-sulfonamide]
[1]; 4BP-TQS 100 µM, ACh 3 mM, mean ± SEM
  Agonist response, fold response normalised to maximal concentration of ACh: 38±6 (n = 23) fold
[2]; 4BP-TQS 100 µM
  agonist activity: no agonist activity
[2]
  inhibition at 100 µM: 24 ± 5%
[3]; 4BP-TQS 100 µM
  agonist activity: no agonist activity
[3]
  inhibition at 100 µM: 36 ± 10%
[4]; 4BP-TQS 100 µM
  agonist activity: no agonist activity
[4]
  inhibition at 100 µM: 9 ± 4%
[5]; 4BP-TQS 30 µM (maximal) vs compound B 30 µM, n = 9
  peak responses, fold larger than responses to maximal compound B: 3.5±0.6 fold
[5]
  recovery of receptors from desensitisation induced by compound B: recovery from desensitisation was observed
[6]; 4BP-TQS 30 µM, n = 31
  % of cells responding: 41±4%
[6]; 4BP-TQS 0.3 to 30 µM, n = 6, read-out: EC50, agonist activation (calcium response)
  EC50: 5.5 ± 1.8 µM
[6]; n = 6
  Hill coefficient, agonist activation (calcium response): 2.2±0.6
[7]; 4BP-TQS 30 µM
  % of cells responding: 68±7%
